How the values were obtained:
[1] = system: human CD34-positive cells transplanted into NOG mouse; assay: In vivo engraftment test with human cells in irradiated NOG mouse (peripheral blood donor chimerism); conditions: 10000 cells transplanted
Protocol: (§1) Each of artemether and the compound of Example 1-23 was prepared with the cell culture medium at a final concentration of 0.003 μM or 0.01 μM, and added to the above human cells seeded after classification (166 cells were seeded per well) to a final volume of 200 μL/well to act thereon. Thereafter, for each condition, 10000 cells in total of a CD34-positive fraction were cultured in a CO2 incubator under conditions of 37° C. and 5% CO2 for 1 week, and the cell count was determined. Among the cells after culture, 10000 cells, a number equal to the number of cells before culture, were transplanted into an immunocompromised NOG mouse exposed to a lethal dose of radiation. As a comparative sample, 10000 fresh cord blood-derived CD34-positive cells (uncultured) were transplanted. For peripheral blood donor chimerism at each specified time after transplantation, the human CD45-positive cell count and the mouse CD45-positive cell count were determined by using a human-specific CD45 antibody and a mouse-specific CD45 antibody, and the peripheral blood donor chimerism was represented as the proportion of human CD45-positive cells to the total of human CD45-positive cells and mouse CD45-positive cells (chimerism rate).

[2] = system: human CD34-positive fraction; assay: Ex vivo culture of 10000 human CD34-positive cells before transplantation (cell count); format: cell-based; conditions: 10000 CD34-positive cells cultured 1 week
Protocol: as §1

[3] = system: mouse long-term hematopoietic stem cells; assay: Reproducibility and concentration dependence test: 1-week culture of sorted Hoxb5-tri-mCherry mouse long-term hematopoietic stem cells, flow cytometry; format: cell-based; conditions: day 7 of culture, n=2
Outline: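 Hoxb5-tri-mCherry+ LT-HSCs (Lin−c-Kit+Sca-1+Flk2−CD34−/lo CD150+) were sorted from mouse bone marrow at 10 cells/well into StemSpan SFEM with SCF and TPO. Cells were cultured with compound for 1 week at 37°C, 5% CO2. Flow cytometry then measured KLS and mCherry+ fractions and cell counts.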

SMILES	KLS-positive rate ([3]; Table 4, compound 0.1 μM)	Viable cell count ([3]; Table 4, compound 0.1 μM)	mCherry-positive rate ([3]; Table 4, compound 0.1 μM)	KLS-positive rate ([3]; Table 4, compound 0.3 μM)	Viable cell count ([3]; Table 4, compound 0.3 μM)	mCherry-positive rate ([3]; Table 4, compound 0.3 μM)	KLS-positive rate ([3]; Table 4, compound 1 μM)	Viable cell count ([3]; Table 4, compound 1 μM)	mCherry-positive rate ([3]; Table 4, compound 1 μM)	KLS-positive rate ([3]; Table 4, compound 3 μM)	Viable cell count ([3]; Table 4, compound 3 μM)	mCherry-positive rate ([3]; Table 4, compound 3 μM)	KLS-positive rate ([3]; Table 4, compound 10 μM)	Viable cell count ([3]; Table 4, compound 10 μM)	mCherry-positive rate ([3]; Table 4, compound 10 μM)	further results
COCCO[C@H]1O[C@@H]2O[C@@]3(C)CC[C@H]4[C@H](C)CC[C@@H]([C@H]1C)[C@@]24OO3 [Example 1-23, (3R,5aS,6R,8aS,9R,10S,12R,12aR)-10-(2-methoxyethoxy)-3,6,9-trimethyldecahydro-12H-3,12-epoxypyrano[4,3-j][1,2]benzodioxepine]	12.4%	712.5 cell	17.9%	15.4%	509.0 cell	46.5%	5.3%	729.0 cell	72.7%	23.2%	252.0 cell	97.3%	42.3%	63.5 cell	100.0%	Donor chimerism ([1]; cells cultured with compound 0.01 μM, 1 month after transplantation): 0.299 ± 0.049%; Donor chimerism ([1]; cells cultured with compound 0.01 μM, 2 months after transplantation): 0.748 ± 0.585%; Viable cell count ([2]; compound 0.01 μM): 20071 cell
CO[C@H]1O[C@@H]2O[C@@]3(C)CC[C@H]4[C@H](C)CC[C@@H]([C@H]1C)[C@@]24OO3 [Example 1-30, artemether, reference compound]	35.3%	238.0 cell	71.2%	38.4%	184.0 cell	100.0%	40.1%	135.5 cell	99.0%	57.4%	44.5 cell	100.0%	71.4%	65.0 cell	98.2%	Donor chimerism ([1]; cells cultured with compound 0.003 μM, 1 month after transplantation): 0.041 ± 0.022%; Donor chimerism ([1]; cells cultured with compound 0.003 μM, 2 months after transplantation): 0.605 ± 0.95%; Donor chimerism ([1]; cells cultured with compound 0.003 μM, 3 months after transplantation): 2.108 ± 2.479%; Viable cell count ([2]; compound 0.003 μM): 95954 cell; KLS-positive rate ([3]; Table 3, compound 0.1 μM): 50.25%; Viable cell count ([3]; Table 3, compound 0.1 μM): 1109 cell; mCherry-positive rate ([3]; Table 3, compound 0.1 μM): 67.2%; KLS-positive rate ([3]; Table 3, compound 0.3 μM): 22.05%; Viable cell count ([3]; Table 3, compound 0.3 μM): 2632 cell; mCherry-positive rate ([3]; Table 3, compound 0.3 μM): 36.85%; KLS-positive rate ([3]; Table 3, compound 1 μM): 21.4%; Viable cell count ([3]; Table 3, compound 1 μM): 1170.5 cell; mCherry-positive rate ([3]; Table 3, compound 1 μM): 57.85%; KLS-positive rate ([3]; Table 3, compound 3 μM): 50.3%; Viable cell count ([3]; Table 3, compound 3 μM): 115 cell; mCherry-positive rate ([3]; Table 3, compound 3 μM): 98.05%; KLS-positive rate ([3]; Table 3, compound 10 μM): 65.9%; Viable cell count ([3]; Table 3, compound 10 μM): 108.5 cell; mCherry-positive rate ([3]; Table 3, compound 10 μM): 94.45%
C[C@H]1[C@H](C(N)=O)O[C@@H]2O[C@@]3(C)CC[C@H]4[C@H](C)CC[C@@H]1[C@@]24OO3 [Example 1-16, (3R,5aS,6R,8aS,9R,10R,12R,12aR)-3,6,9-Trimethyldecahydro-12H-3,12-epoxypyrano[4,3-j][1,2]benzodioxepine-10-carboxamide]	13.3%	504.5 cell	6.8%	11.6%	388.5 cell	29.2%	33.4%	310.0 cell	68.2%	9.2%	182.5 cell	92.4%	52.6%	29.0 cell	99.0%	
C[C@H]1[C@H](c2ccco2)O[C@@H]2O[C@@]3(C)CC[C@H]4[C@H](C)CC[C@@H]1[C@@]24OO3 [Example 1-7, (3R,5aS,6R,8aS,9R,10R,12R,12aR)-10-(Furan-2-yl)-3,6,9-trimethyldecahydro-12H-3,12-epoxypyrano[4,3-j][1,2]benzodioxepine]	26.9%	225.0 cell	42.9%	19.6%	269.0 cell	62.2%	36.1%	73.0 cell	96.7%	0.0%	0.0 cell	0.0%	0.0%	0.0 cell	0.0%	

— US20230094952A1, “Method for Culturing Hematopoietic Stem Cells” (Sumitomo Pharma Co., Ltd., priority 2019, published 2023)
